Entries after “also recorded” stand apart in the source; their conditions may differ.
Columns and labels:
[1] = mouse, in vivo
Protocol: Briefly, mice were anesthetized with a mixture of Ketamine/Xylazine (100 mg/kg, 10 mg/kg, respectively), after depth of anesthesia was confirmed by the cessation of reflexes, the incision area was properly shaved and sterilized with the aid of ethanol 70% swabs (Vitrex Medical A/S Herlev, DK), followed by iodine solution (Povidone Iodine 7.5% Henry Schein, Melville, NY, USA) applicated using cotton swabs. Before the onset of surgery, analgesics were applied, Lidocaine (0.05 ml, 0.2 mg/ml) was applied in the incision site and Buprenorphine (0.05 mg/kg) injected subcutaneously for post-surgical analgesia. After performing the skin incision around the occipital crest, the neck muscles were separated to reveal the CM underneath. […]
Immediately after the CM cannulation procedure, animals were moved to MRI scanner and head movement during scanning was minimized by restraining the animals on an MR-compatible stereotactic holder with ear bars. Body temperature was maintained at 37±0.5° C. with a thermostatically controlled waterbed and monitored, along with the respiratory rate by an MR compatible remote monitoring system (SA Instruments, NY, USA). […] Every 3D-CISS image was calculated as a maximum intensity projection from 4 realigned 3D-TrueFISP volumes with 4 orthogonal phase encoding directions (TR/TE 3.9/1.95 ms, Nex 2, FA 50°, FOV 19.2×12.8×12.8 mm, Matrix 192×128×128, BW 150 kHz). […]

[2] = CT live imaging of CSF tracer after intracisternal infusion, with dispersion model; assay type: in vivo, mouse
Protocol: During the CM cannulation procedure a custom-made head bar was fixed on the top of the animal skull. The head bar was designed to minimize undesired movements during the image acquisition (Yoshida et al., 2016), and fixed to an animal holder. […] Animal's respiration was monitored by using Biovet software. CT scans were performed with the Vector4CT system (MILabs, Utrecht, Netherlands) and scanning of the entire mouse head was performed in 4.56 min at an isotropic spatial resolution of 20 μm. The time series CT scanning protocol comprised one baseline scan (4.5 min) followed by intracisternal infusion of Omnipaque (350 mg I/ml, 1 μL/min, 10 μL, GE healthcare). Scans continued over 6 measurements (30 min) after intracisternal infusion of Omnipaque.
The time-intensity data was extracted using ITK snap with the ROIs described above after background subtraction and then normalized to maximal cisterna magna intensity. Dimensions of cochlear aqueduct were measured using the #X feature in ITK snap for #four animals. Distances between ROIs were calculated using their spatial coordinates.
To solve the equation (#ref), inventors implemented a simple finite difference scheme in Python (#ref) using NumPy and Scipy (#ref). Estimation of the dispersion coefficient was achieved by minimizing the L2-norm prediction error, using Scipy (#ref) E: […]

Row | Compound | Time activity curves for tracer influx in mice lacking aqp4 [1] | Time to reach 50 max [1] | Tracer concentration in scala vestibuli or cochlear nerve (CT) ([2]; during the 30 min of scanning) | Tracer dispersal into scala tympani (CT) ([2]; intracisternal delivery, 30 min of scanning)
1 | O=C([O-])CN1CCN(CC(=O)[O-])CCN([C@H](CO)[C@H](O)CO)CCN(CC(=O)[O-])CC1.[Gd+3] (racemic) [Gadovist, gadobutrol] | did not differ from wild type animals | significantly higher in the cochlea | – | –
2 | CC(=O)N(CC(O)CO)c1c(I)c(C(=O)NCC(O)CO)c(I)c(C(=O)NCC(O)CO)c1I (stereo not shown) [Omnipaque] | – | – | No clear rise; also recorded: no significant tracer arrives | reaches the base and middle region of the scala tympani; also recorded: moves into the base of scala tympani
